Experimental data from patent US9643967B2, “Pyrrolo[3,2-c]pyridine derivatives as TLR inhibitors” (TAKEDA PHARMACEUTICAL COMPANY LIMITED, priority 2013, dated 2017).
Like-named read-outs stand apart in the source and are kept apart here.

Molecular target: T1, mTLR7 (Mus musculus, UniProt P58681)
T1 construct: Splenocytes isolated from male C57/BL6 mice; from tissue; host or cells: splenocytes from the spleen of male C57BL/6 mice
T1 sequence (P58681 27-1050): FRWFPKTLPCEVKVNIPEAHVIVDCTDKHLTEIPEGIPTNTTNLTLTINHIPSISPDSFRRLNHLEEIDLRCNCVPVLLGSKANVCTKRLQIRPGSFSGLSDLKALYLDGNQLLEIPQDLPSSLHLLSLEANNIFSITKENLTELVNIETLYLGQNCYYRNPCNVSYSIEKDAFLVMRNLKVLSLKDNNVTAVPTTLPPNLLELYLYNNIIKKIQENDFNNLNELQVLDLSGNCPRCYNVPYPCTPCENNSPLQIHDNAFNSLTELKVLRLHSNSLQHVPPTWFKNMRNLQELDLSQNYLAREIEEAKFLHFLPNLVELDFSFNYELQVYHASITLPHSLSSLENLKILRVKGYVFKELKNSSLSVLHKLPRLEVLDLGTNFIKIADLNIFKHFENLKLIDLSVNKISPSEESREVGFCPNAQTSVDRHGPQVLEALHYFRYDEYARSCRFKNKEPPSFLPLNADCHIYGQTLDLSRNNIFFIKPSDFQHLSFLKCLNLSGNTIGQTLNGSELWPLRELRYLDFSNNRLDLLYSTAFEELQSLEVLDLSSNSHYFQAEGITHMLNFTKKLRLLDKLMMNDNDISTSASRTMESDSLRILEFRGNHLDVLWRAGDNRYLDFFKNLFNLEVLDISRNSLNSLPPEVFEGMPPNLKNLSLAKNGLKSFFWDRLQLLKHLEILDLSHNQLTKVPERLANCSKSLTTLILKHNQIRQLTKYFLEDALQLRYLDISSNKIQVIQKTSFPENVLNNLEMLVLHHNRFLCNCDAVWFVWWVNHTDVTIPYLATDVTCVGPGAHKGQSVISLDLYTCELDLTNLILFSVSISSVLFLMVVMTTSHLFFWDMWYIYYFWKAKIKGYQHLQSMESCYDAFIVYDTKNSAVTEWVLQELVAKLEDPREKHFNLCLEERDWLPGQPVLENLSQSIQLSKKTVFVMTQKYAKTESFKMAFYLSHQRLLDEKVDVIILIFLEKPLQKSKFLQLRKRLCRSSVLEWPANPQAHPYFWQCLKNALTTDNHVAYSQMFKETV
Assay: mTLR7 antagonism (IL-6 and TNF-α release assay) in mouse splenocytes, R0006/DOTAP stimulated
Assay type: cell-based
Conditions: 1 μM, mouse splenocytes
From the text: mTLR9 and mTLR7 Antagonism (Cytokine Release Assay) in Mouse Splenocytes
TLR7 ligand R0006 (IDT, 5′-rU*rU*rG*rU*rU*rG*rU*rU*rG*rU*rU*rG*rU*rU*rG*rU*rU*rG*rU*rU-3′ (SEQ ID NO:1)), Liposomal transfection reagent—DOTAP (Roche, Cat. No. 11202375001), TLR9 ligand CpG ODN2006 (Sequence: T*C*G*T*C*G*T*T*T*T*G*T*C*G*T*T*T*T*G*T*C*G*T*T; *=phosphorothioate (SEQ ID NO:2)) DMSO (Sigma, D2650), RPMI Powder (Sigma, R6504), Fetal Bovine Serum (Gibco, 10270), Dulbecco's Phosphate Buffered Saline (Sigma, D1408), 96 well plate (Flat bottom, Costar 3599), ELISA kit for IL-6 (EBioscience, 88-7064-77 and TNFa (EBioscience, 88-7346-88), MACS Buffer (AutoMACS Rinsing Solution (Miltenyl Biotec, 130-091-222)+0.05% BSA), RBC lysis buffer (0.85% NH4Cl), 40 μm cell strainer (BD Falcon, 352340) Method: A. Isolation of Mouse Splenocytes
Mouse spleen was isolated from C57BL6 mouse and stored in 1× chilled PBS buffer until further processed. Spleen was transferred to a sterile petriplate and chopped in to 5-6 pieces in presence of MACS buffer (100 μl) with the help of fresh surgical blade and crushed with flat plunger of a sterile syringe. A uniform suspension was prepared by passing cells through a 40 μm cell strainer. Cells were centrifuged at 450×g for 5 minutes at 4° C., supernatant was discarded and pellet dislodged gently, resuspended in 2 ml of pre-warmed (37° C.) RBC lysis buffer at room temperature with continuous gentle mixing with 1 ml pipette. Lysis buffer was neutralized with 12 ml of chilled MACS buffer and cells were passed through 40 μm cell strainer. Cell suspension was collected in 15 ml MACS buffer and centrifuged at 450×g for 5 minutes at 4° C. Pellet was resuspended in 15 ml MACS buffer and centrifuged at 400×g for 5 minutes. Cells were resuspended in 10 ml of RPMI complete medium and viability was estimated by Trypan blue method.
mTLR7 Antagonism (IL-6 and TNF-α Release Assay):
1 mg/ml stock of R0006 was prepared in sterile, endotoxin-free water. R0006 stock was diluted 10 fold with DOTAP and incubated for 30 minutes to form liposome complex (100 μg/ml of R0006). This complex was further diluted 10 fold with incomplete RPMI media (10 μg/ml of R0006) to achieve the final agonist concentration of 1 μg/ml. DOTAP alone was diluted 10 fold in incomplete RPMI media. NCEs were added in a concentration range of 30 μM to 1 nM in respective wells of assay plate, assay medium containing 0.3% DMSO were added to control wells. 0.2 million splenocytes were added to all the wells and incubated at 37° C. in 5% CO2 incubator for 30 minutes. 1 μg/ml of respective agonist was added to all the wells except those were assigned as negative controls and mixed thoroughly. DOTAP was added to negative control wells and incubated overnight at 37° C./5% CO2. The plate was centrifuged at 450×g for 5 minutes at room temperature and the supernatant was collected. ELISA was performed as per manufacturer's protocol. S/B Ratio, % Activity and % Inhibition was calculated using MS Excel. IC50 and inhibition curve was generated using Graph Pad Prism.

[1] = IL-6 release, read-out: mTLR7 inhibitory activity (% at 1 μM), IL-6
[2] = TNF-α release, read-out: mTLR7 inhibitory activity (% at 1 μM), TNF-α

| inhibition at 1 µM [1] [%] | inhibition at 1 µM [2] [%] | Compound |
| --- | --- | --- |
| 100 | 100 | Cc1cc2c(cc(CCN3CCOCC3)n2C)c(-c2ccc(N3CCN(C(C)C)CC3)c(C)c2)n1 [Example B16, 4-[2-[4-[4-(4-isopropylpiperazin-1-yl)-3-methyl-phenyl]-1,6-dimethyl-pyrrolo[3,2-c]pyridin-2-yl]ethyl]morpholine] |
|  | 100 | Cc1nc(-c2ccc(N3CCN(C(C)C)CC3)cc2)c2cc(CN3CCCC3)[nH]c2c1C [Example A40, 4-[4-(4-isopropylpiperazin-1-yl)phenyl]-6,7-dimethyl 2-(pyrrolidin-1-ylmethyl)-1H-pyrrolo[3,2-c)pyridine] |
| 70 | 57 | COc1cc(N2CCN(C(C)C)CC2)ccc1-c1nc(C)cc2c1cc(CCN1CCOCC1)n2C [Example B20, 4-[2-[4-[4-(4-isopropylpiperazin-1-yl)-2-methoxy-phenyl]-1,6-dimethyl-pyrrolo[3,2-c]pyridin-2-yl]ethyl]morpholine] |
| 100 | 100 | CC(C)N1CCN(c2ccc(-c3nccc4c3cc(CN3CCOCC3)n4C)cc2)CC1 [Example A8, 4-[[4-[4-(4-isopropylpiperazin-1-yl)phenyl]-1-methyl-pyrrolo[3,2-c]pyridin-2-yl]methyl] morpholine] |
| 100 | 100 | Cc1cc2[nH]c(CCCN3CCOCC3)cc2c(-c2ccc(N3CCN(C(C)C)CC3)cc2)n1 [Example C3, 4-[3-[4-[4-(4-isopropylpiperazin-1-yl)phenyl]-6-methyl-1H-pyrrolo[3,2-c]pyridin-2-yl]propyl]morpholine] |
|  | 100 | CN1CCN(c2ccc(-c3nccc4[nH]c(CCCN5CCOCC5)cc34)cc2)CC1 [Example C2, 4-[3-[4-[4-(4-methylpiperazin-1-yl)phenyl]-1H-pyrrolo[3,2-c]pyridin-2-yl]propyl]morpholine] |
|  | 100 | CC(C)N1CCN(c2ccc(-c3nccc4[nH]c(CN5CCC(F)CC5)cc34)cc2)CC1 [Example A24, 2-[(4-fluoro-1-piperidyl)methyl]-4-[4-(4-isopropylpiperazin-yl)phenyl]-1H-pyrrolo[3,2-c] pyridine] |
|  | 100 | CN1CCN(c2ccc(-c3nccc4c3cc(CN3CCOCC3)n4C)cc2)CC1 [Example A9, 4-[[1-methyl-4-[4-(4-methylpiperazin-1-yl)phenyl]pyrrolo[3,2-c]pyridin-2-yl]methyl] morpholine] |
| 100 | 99 | Cc1nc(-c2ccc(N3CCN(C(C)C)CC3)cc2)c2cc(CN3CCOCC3)[nH]c2c1C [Example A36, 4-[[4-[4-(4-isopropylpiperazin-1-yl)phenyl]-6,7-dimethyl-1H-pyrrolo[3,2-c]pyridin-2-yl]methyl] morpholine] |
|  | 100 | CC(C)N1CCN(c2ccc(-c3nccc4[nH]c(CCCN5CCOCC5)cc34)cc2)CC1 [Example C1, 4-[3-[4-[4-(4-isopropylpiperazin-1-yl)phenyl]-1H-pyrrolo[3,2-c]pyridin-2-yl]propyl]morpholine] |
|  | 83 | CC(C)N1CCN(c2ccc(-c3nc(C4CC4)cc4[nH]c(CN5CCOCC5)cc34)cc2)CC1 [Example A33, 4-[[6-cyclopropyl-4-[4-(4-isopropylpiperazin-1-yl)phenyl]-1H-pyrrolo[3,2-c]pyridin-2-yl]methyl] morpholine] |
| 100 | 99 | CC(C)N1CCN(c2ccc(-c3nccc4[nH]c(CN5CC(F)C5)cc34)cc2)CC1 [Example A16, 2-[(3-fluoroazetidin-1-yl)methyl]-4-[4-(4-isopropylpiperazin-1-yl)phenyl]-1H-pyrrolo[3,2-c]pyridine] |
|  | 88 | CCN1CCN(c2ccc(-c3nc(C)c(C)c4[nH]c(CCN5CCOCC5)cc34)cc2)CC1 [Example B8, 4-[2-[4-[4-(4-ethylpiperazin-1-yl)phenyl]-6,7-dimethyl-1H-pyrrolo[3,2-c]pyridin-2-yl]ethyl]morpholine] |
